The test concerns the target human SSTR2 (Homo sapiens (Human), UniProt P30874). Description: Human SSTR2 intracellular cAMP functional assay for agonists (HTRF). It counts as cell-based. The following applies: CHO-K1 cells stably expressing human SSTR2; NKH477-stimulated cAMP; read-out: EC50 (inhibition of cAMP activities via human SST2R). The procedure, abridged:
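Cells bearing human SSTR2 exposed to compound for 20 minutes at 37 °C; after lysis, cAMP measured by time-resolved fluorescence (HTRF) and converted via a standard curve. EC50 calculated from cAMP versus compound concentration.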
In general terms: Time-resolved FRET reads energy transfer from a long-lived donor to a nearby acceptor.
human SSTR2, sequence (P30874 whole entry): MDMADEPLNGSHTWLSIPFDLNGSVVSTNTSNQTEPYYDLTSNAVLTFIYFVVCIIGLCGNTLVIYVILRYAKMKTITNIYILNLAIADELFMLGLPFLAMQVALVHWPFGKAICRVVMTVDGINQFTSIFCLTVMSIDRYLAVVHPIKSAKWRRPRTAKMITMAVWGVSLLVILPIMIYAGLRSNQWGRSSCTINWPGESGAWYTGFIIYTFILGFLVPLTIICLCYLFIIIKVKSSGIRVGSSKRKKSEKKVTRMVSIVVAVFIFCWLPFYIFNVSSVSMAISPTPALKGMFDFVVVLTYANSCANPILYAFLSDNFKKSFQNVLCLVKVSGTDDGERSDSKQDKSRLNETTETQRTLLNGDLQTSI
On to `Cc1cc(Cl)cc(-c2nnc3ccc(-c4cc(F)cc5[nH]c(=O)[nH]c45)cc3c2N2CCC(N)CC2)c1` [1-24, 4-[4-(4-aminopiperidin-1-yl)-3-(3-chloro-5-methylphenyl)cinnolin-6-yl]-6-fluoro-2,3-dihydro-1H-1,3-benzodiazol-2-one], for which the EC50 was below 10 nM.

`Cc1cc(F)cc(-c2nnc3cc(Cl)c(-c4cc(F)cc(C(N)=O)c4)cc3c2N2CCC(NCCF)CC2)c1` [1-25, 3-[7-chloro-3-(3-fluoro-5-methylphenyl)-4-{4-[(2-fluoroethyl)amino]piperidin-1-yl}cinnolin-6-yl]-5-fluorobenzamide]: the EC50 was below 10 nM.

As to `NC1CCN(c2c(-c3cc(Cl)cc(Cl)c3)nnc3ccc(-c4cc(F)c5[nH]c(=O)[nH]c5c4)cc23)CC1` [1-28, 6-[4-(4-aminopiperidin-1-yl)-3-(3,5-dichlorophenyl)cinnolin-6-yl]-4-fluoro-2,3-dihydro-1H-1,3-benzodiazol-2-one], the EC50 was below 10 nM.

For the molecule `Cc1cc(Cl)cc(-c2nnc3ccc(-c4cccc(F)c4O)cc3c2N2CCC(N)CC2)c1` [1-29, 2-[4-(4-aminopiperidin-1-yl)-3-(3-chloro-5-methylphenyl)cinnolin-6-yl]-6-fluorophenol], the EC50 is below 10 nM.

As to `NC(=O)c1cc(F)cc(-c2ccc3nnc(-c4cc(Cl)cc(Cl)c4)c(N4CCC(N)CC4)c3c2)c1` [1-30, 3-[4-(4-aminopiperidin-1-yl)-3-(3,5-dichlorophenyl)cinnolin-6-yl]-5-fluorobenzamide], the concentration giving a half-maximal response (EC50) was below 10 nM.

Regarding `NC(=O)c1cc(F)cc(-c2ccc3nnc(-c4cc(Cl)cc(Cl)c4)c(N4CCC(NC5COC5)CC4)c3c2)c1` [1-31, 3-[3-(3,5-dichlorophenyl)-4-{4-[(oxetan-3-yl)amino]piperidin-1-yl}cinnolin-6-yl]-5-fluorobenzamide], the EC50 was below 10 nM.

Consider `NC(=O)c1cc(F)cc(-c2ccc3nnc(-c4cc(Cl)cc(Cl)c4)c(N4CCC(NCCC(F)(F)F)CC4)c3c2)c1` [1-32, 3-[3-(3,5-dichlorophenyl)-4-{4-[(3,3,3-trifluoropropyl)amino]piperidin-1-yl}cinnolin-6-yl]-5-fluorobenzamide], for which the EC50 is below 10 nM.

For the molecule `NC(=O)c1cc(F)cc(-c2ccc3nnc(-c4cc(Cl)cc(Cl)c4)c(N4CCC(NCCF)CC4)c3c2)c1` [1-33, 3-[3-(3,5-dichlorophenyl)-4-{4-[(2-fluoroethyl)amino]piperidin-1-yl}cinnolin-6-yl]-5-fluorobenzamide], the EC50 was below 10 nM.

As to `NCC1CN(c2c(-c3cc(Cl)cc(Cl)c3)nnc3ccc(-c4cc(F)cc(C(N)=O)c4)cc23)C1` [1-34, 3-{4-[3-(aminomethyl)azetidin-1-yl]-3-(3,5-dichlorophenyl)cinnolin-6-yl}-5-fluorobenzamide], the 50% effective concentration (EC50) is below 10 nM.

Consider `Cc1cc(F)cc(-c2cnc3ccc(-c4cccc(C#N)c4O)cc3c2N2CCC(N)CC2)c1` [2-1, 3-[4-(4-aminopiperidin-1-yl)-3-(3-fluoro-5-methylphenyl)quinolin-6-yl]-2-hydroxybenzonitrile], for which the EC50 is below 10 nM.

Turning to `N#Cc1cccc(-c2ccc3ncc(-c4cc(F)cc(F)c4)c(N4CCC(N)CC4)c3c2)c1O` [2-2, 3-[4-(4-amino-piperidin-1-yl)-3-(3,5-difluoro-phenyl)-quinolin-6-yl]-2-hydroxy-benzonitrile], the EC50 is below 10 nM.

`N#Cc1cccc(-c2ccc3ncc(-c4cc(F)cc(F)c4)c(N4CCC(N)CC4)c3c2)c1` [2-5, 3-[4-(4-aminopiperidin-1-yl)-3-(3,5-difluorophenyl)quinolin-6-yl]benzonitrile]: the EC50 was below 10 nM.

With `NC1CCN(c2c(-c3cc(F)cc(F)c3)cnc3ccc(-c4ccccc4O)cc23)CC1` [2-6, 2-[4-(4-aminopiperidin-1-yl)-3-(3,5-difluorophenyl)quinolin-6-yl]phenol], the EC50 was below 10 nM.

As for `Cc1cc(F)cc(-c2cnc3ccc(-c4cccc(C(N)=O)n4)cc3c2N2CCC(N)CC2)c1` [2-7, 6-[4-(4-aminopiperidin-1-yl)-3-(3-fluoro-5-methylphenyl)quinolin-6-yl]pyridine-2-carboxamide], the EC50 is below 10 nM.

The term EC50 denotes the concentration that produces a half-maximal response.

The record behind these values is patent US10351547B2, “Somatostatin modulators and uses thereof” (priority 2016, dated 2019).
